Laboratory results reported in patent US20090018134A1, “Compounds - 945” (AstraZeneca AB, priority 2007, published 2009).

Legend:
mTOR [1] = biological target: T1, mTOR (Homo sapiens, UniProt P42345); experiment: mTOR Kinase Assay (Echo); assay type: biochemical
T1 construct: FLAG; made in house

mTOR [2] = biological target: T1, mTOR; experiment: In Vitro mTOR Kinase Assay (Echo), Test (a)(ii); assay type: biochemical; conditions: table of enzyme assay Test (a)(ii); read-out: Test (a)(ii) IC50
Method in brief: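 Enzyme: HEK293-expressed, FLAG-purified mTOR C-terminal fragment (aa 1362-2549). Rxn 2 h RT with biotinylated peptide, stopped with EDTA 50 mM/BSA/Tris pH 7.4. Detection: T389 phospho-antibody AlphaScreen, 680 nm excitation. IC50.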

T1 sequence (P42345 1362-2549): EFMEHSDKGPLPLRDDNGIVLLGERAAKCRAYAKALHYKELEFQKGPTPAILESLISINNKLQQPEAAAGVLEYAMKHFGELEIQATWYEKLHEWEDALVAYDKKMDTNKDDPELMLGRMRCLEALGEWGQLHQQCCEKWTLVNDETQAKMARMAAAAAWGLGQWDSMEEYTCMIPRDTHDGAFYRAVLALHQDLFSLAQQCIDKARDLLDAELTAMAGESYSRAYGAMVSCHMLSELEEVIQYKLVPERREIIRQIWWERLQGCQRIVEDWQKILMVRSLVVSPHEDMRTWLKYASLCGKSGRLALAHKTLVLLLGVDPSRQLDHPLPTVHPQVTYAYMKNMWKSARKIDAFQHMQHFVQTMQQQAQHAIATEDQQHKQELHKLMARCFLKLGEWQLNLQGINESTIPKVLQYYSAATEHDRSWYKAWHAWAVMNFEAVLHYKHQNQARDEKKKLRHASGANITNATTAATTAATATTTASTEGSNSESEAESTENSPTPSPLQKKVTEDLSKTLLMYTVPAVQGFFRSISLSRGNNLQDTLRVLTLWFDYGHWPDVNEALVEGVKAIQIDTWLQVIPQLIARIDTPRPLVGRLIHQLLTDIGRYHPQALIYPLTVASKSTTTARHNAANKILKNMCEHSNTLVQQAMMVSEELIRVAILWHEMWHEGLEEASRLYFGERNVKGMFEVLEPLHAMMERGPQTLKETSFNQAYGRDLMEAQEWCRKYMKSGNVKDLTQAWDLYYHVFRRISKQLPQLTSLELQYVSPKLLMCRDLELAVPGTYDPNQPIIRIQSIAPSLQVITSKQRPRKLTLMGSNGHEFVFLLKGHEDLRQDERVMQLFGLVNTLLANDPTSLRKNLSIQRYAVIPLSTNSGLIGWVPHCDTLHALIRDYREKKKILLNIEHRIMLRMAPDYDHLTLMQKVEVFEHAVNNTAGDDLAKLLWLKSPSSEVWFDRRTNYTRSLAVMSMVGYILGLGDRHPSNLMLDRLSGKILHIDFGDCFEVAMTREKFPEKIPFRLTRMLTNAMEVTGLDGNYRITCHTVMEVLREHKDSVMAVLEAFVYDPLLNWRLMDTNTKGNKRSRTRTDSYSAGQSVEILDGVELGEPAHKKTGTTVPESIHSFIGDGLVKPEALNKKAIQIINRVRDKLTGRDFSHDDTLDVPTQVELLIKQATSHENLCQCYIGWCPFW

IC50 (mTOR [1]) [nM] | IC50 (mTOR [2]) [nM] | SMILES
2.4 | 1.73 | O=C(Nc1ccc(-c2nc(N3CCOCC3)cc(C3(S(=O)(=O)C4CC4)CC3)n2)cc1)NC1CCC1 [Example 13c, 3-cyclobutyl-1-[4-[4-(1-cyclopropylsulfonylcyclopropyl)-6-morpholin-4-ylpyrimidin-2-yl]phenyl]urea]
9.67 | 7.14 | C[C@H]1COCCN1c1cc(C2(S(=O)(=O)C(C)(C)C)CC2)nc(-c2ccc(NC(=O)NC3CCC3)cc2)n1 [Example 18a, 1-[4-[4-(1-tert-butylsulfonylcyclopropyl)-6-[(3S)-3-methylmorpholin-4-yl]pyrimidin-2-yl]phenyl]-3-cyclobutylurea]
1.57 | 1.52 | Cc1csc(S(=O)(=O)C2(c3cc(N4CCOC[C@@H]4C)nc(-c4ccc(NC(=O)NC(C)C)cc4)n3)CC2)n1 [Example 25d, 1-[4-[4-[(3S)-3-methylmorpholin-4-yl]-6-[1-[(4-methyl-1,3-thiazol-2-yl)sulfonyl]cyclopropyl]pyrimidin-2-yl]phenyl]-3-propan-2-ylurea]
1.19 | 1.43 | Cc1csc(S(=O)(=O)C2(c3cc(N4CCOC[C@@H]4C)nc(-c4ccc(NC(=O)NCCO)cc4)n3)CC2)n1 [Example 25g, 3-(2-hydroxyethyl)-1-[4-[4-[(3S)-3-methylmorpholin-4-yl]-6-[1-[(4-methyl-1,3-thiazol-2-yl)sulfonyl]cyclopropyl]pyrimidin-2-yl]phenyl]urea]
1.44 | 1.11 | C[C@H]1COCCN1c1cc(C2(S(=O)(=O)c3ccc(Cl)cc3)CC2)nc(-c2ccc(NC(=O)NC3CC3)cc2)n1 [Example 27, 1-[4-[4-[1-(4-Chlorophenyl)sulfonylcyclopropyl]-6-[(3S)-3-methylmorpholin-4-yl]pyrimidin-2-yl]phenyl]-3-cyclopropylurea]
0.719 | 0.351 | CNC(=O)Nc1ccc(-c2nc(N3CCOC[C@@H]3C)cc(C3(S(=O)(=O)c4ccc(Cl)cc4)CC3)n2)cc1 [Example 27e, 1-[4-[4-[1-(4-chlorophenyl)sulfonylcyclopropyl]-6-[(3S)-3-methylmorpholin-4-yl]pyrimidin-2-yl]phenyl]-3-methylurea]
0.959 | 0.997 | CCNC(=O)Nc1ccc(-c2nc(N3CCOC[C@@H]3C)cc(C3(S(=O)(=O)c4ccc(Cl)cc4)CC3)n2)cc1 [Example 27f, 3-[4-[4-[1-(4-chlorophenyl)sulfonylcyclopropyl]-6-[(3S)-3-methylmorpholin-4-yl]pyrimidin-2-yl]phenyl]-1-ethylurea]
18.9 | 21.3 | C[C@H]1COCCN1c1cc(C2(S(=O)(=O)c3ccc(Cl)cc3)CC2)nc(-c2ccc(NC(=O)NCCN(C)C)cc2)n1 [Example 27g, 1-[4-[4-[1-(4-chlorophenyl)sulfonylcyclopropyl]-6-[(3S)-3-methylmorpholin-4-yl]pyrimidin-2-yl]phenyl]-3-(2-dimethylaminoethyl)urea]
0.0856 | 0.244 | C[C@H]1COCCN1c1cc(C2(S(=O)(=O)c3ccc(Cl)cc3)CC2)nc(-c2ccc(NC(=O)NCCO)cc2)n1 [Example 27h, 1-[4-[4-[1-(4-chlorophenyl)sulfonylcyclopropyl]-6-[(3S)-3-methylmorpholin-4-yl]pyrimidin-2-yl]phenyl]-3-(2-hydroxyethyl)urea]
0.816 | 1.87 | C[C@H]1COCCN1c1cc(C2(S(=O)(=O)c3ccccn3)CC2)nc(-c2ccc(NC(=O)NC3CC3)cc2)n1 [Example 28, 3-Cyclopropyl-1-[4-[4-[(3S)-3-methylmorpholin-4-yl]-6-(1-pyridin-2-ylsulfonylcyclopropyl)pyrimidin-2-yl]phenyl]urea]
11.8 | 1.18 | C[C@H]1COCCN1c1cc(C2(S(=O)(=O)c3ccccn3)CC2)nc(-c2ccc(NC(=O)NCCO)cc2)n1 [Example 28g, 3-(2-hydroxyethyl)-1-[4-[4-[(3S)-3-methylmorpholin-4-yl]-6-(1-pyridin-2-ylsulfonylcyclopropyl)pyrimidin-2-yl]phenyl]urea]
2.58 | 2.55 | C[C@H]1COCCN1c1cc(C2(S(=O)(=O)c3ccccn3)CCC2)nc(-c2ccc(NC(=O)Nc3cnn(C)c3)cc2)n1 [Example 36aj, 1-[4-[4-[(3S)-3-methylmorpholin-4-yl]-6-(1-pyridin-2-ylsulfonylcyclobutyl)pyrimidin-2-yl]phenyl]-3-(1-methylpyrazol-4-yl)urea]
18.7 | 16.1 | O=C(Nc1ccc(-c2nc(N3CCOCC3)cc(C3(S(=O)(=O)c4ccc(F)cc4)CC3)n2)cc1)NC1CC1 [Example 36al, 3-cyclopropyl-1-[4-[4-[1-(4-fluorophenyl)sulfonylcyclopropyl]-6-morpholin-4-ylpyrimidin-2-yl]phenyl]urea]
259 | – | C[C@H]1COCCN1c1cc(C2(S(=O)(=O)c3ccccn3)CC2)nc(-c2ccc(NC(=O)NC3(CO)CC3)cc2)n1 [Example 36cv, 3-[1-(hydroxymethyl)cyclopropyl]-1-[4-[4-[(3S)-3-methylmorpholin-4-yl]-6-(1-pyridin-2-ylsulfonylcyclopropyl)pyrimidin-2-yl]phenyl]urea]
– | 28.5 | C[C@H]1COCCN1c1cc(C2(S(=O)(=O)c3nccs3)CCC2)nc(-c2ccc(NC(=O)NCc3ncc[nH]3)cc2)n1 [Example 98i, 3-(1H-imidazol-2-ylmethyl)-1-[4-[4-[(3S)-3-methylmorpholin-4-yl]-6-[1-(1,3-thiazol-2-ylsulfonyl)cyclobutyl]pyrimidin-2-yl]phenyl]urea]
– | 3.74 | C[C@H]1COCCN1c1cc(C2(S(=O)(=O)c3nccs3)CCC2)nc(-c2ccc(NC(=O)NCCCO)cc2)n1 [Example 98j, 3-(3-hydroxypropyl)-1-[4-[4-[(3S)-3-methylmorpholin-4-yl]-6-[1-(1,3-thiazol-2-ylsulfonyl)cyclobutyl]pyrimidin-2-yl]phenyl]urea]
– | 2.46 | C[C@H]1COCCN1c1cc(C2(S(=O)(=O)c3nccs3)CCC2)nc(-c2ccc(NC(=O)NCCO)cc2)n1 [Example 98k, 3-(2-hydroxyethyl)-1-[4-[4-[(3S)-3-methylmorpholin-4-yl]-6-[1-(1,3-thiazol-2-ylsulfonyl)cyclobutyl]pyrimidin-2-yl]phenyl]urea]
– | 7.89 | C[C@H](CO)NC(=O)Nc1ccc(-c2nc(N3CCOC[C@@H]3C)cc(C3(S(=O)(=O)c4nccs4)CCC3)n2)cc1 [Example 98l, 3-[(2R)-1-hydroxypropan-2-yl]-1-[4-[4-[(3S)-3-methylmorpholin-4-yl]-6-[1-(1,3-thiazol-2-ylsulfonyl)cyclobutyl]pyrimidin-2-yl]phenyl]urea]
– | 43.8 | CNC(=S)Nc1ccc(-c2nc(N3CCOC[C@@H]3C)cc(C3(S(=O)(=O)CCCO)CCC3)n2)cc1 [Example 99a, 1-[4-[4-[1-(3-hydroxypropylsulfonyl)cyclobutyl]-6-[(3S)-3-methylmorpholin-4-yl]pyrimidin-2-yl]phenyl]-3-methylthiourea]
– | 31.6 | C[C@H]1COCCN1c1cc(C2(S(=O)(=O)CCCO)CCC2)nc(-c2ccc(NC(=S)NC3CC3)cc2)n1 [Example 99b, 3-cyclopropyl-1-[4-[4-[1-(3-hydroxypropylsulfonyl)cyclobutyl]-6-[(3S)-3-methylmorpholin-4-yl]pyrimidin-2-yl]phenyl]thiourea]
– | 239 | C[C@H]1COCCN1c1cc(C2(S(=O)(=O)CCCO)CCC2)nc(-c2ccc(NC(=S)NCc3ncc[nH]3)cc2)n1 [Example 99c, 1-[4-[4-[1-(3-hydroxypropylsulfonyl)cyclobutyl]-6-[(3S)-3-methylmorpholin-4-yl]pyrimidin-2-yl]phenyl]-3-(1H-imidazol-2-ylmethyl)thiourea]
– | 219 | C[C@H]1COCCN1c1cc(C2(S(=O)(=O)CCCO)CCC2)nc(-c2ccc(NC(=S)NC(C)(C)CO)cc2)n1 [Example 99d, 3-(1-hydroxy-2-methylpropan-2-yl)-1-[4-[4-[1-(3-hydroxypropylsulfonyl)cyclobutyl]-6-[(3S)-3-methylmorpholin-4-yl]pyrimidin-2-yl]phenyl]thiourea]
– | 31.7 | CCNC(=S)Nc1ccc(-c2nc(N3CCOC[C@@H]3C)cc(C3(S(=O)(=O)CCCO)CCC3)n2)cc1 [Example 99e, 1-ethyl-3-[4-[4-[1-(3-hydroxypropylsulfonyl)cyclobutyl]-6-[(3S)-3-methylmorpholin-4-yl]pyrimidin-2-yl]phenyl]thiourea]
– | 5.89 | C[C@H]1COCCN1c1cc(C2(S(=O)(=O)CCCO)CCC2)nc(-c2ccc(NC(=S)NCCO)cc2)n1 [Example 99f, 3-(2-hydroxyethyl)-1-[4-[4-[1-(3-hydroxypropylsulfonyl)cyclobutyl]-6-[(3S)-3-methylmorpholin-4-yl]pyrimidin-2-yl]phenyl]thiourea]
– | 15.2 | C[C@H]1COCCN1c1cc(C2(S(=O)(=O)CCCO)CCC2)nc(-c2ccc(NC(=S)NCC(F)F)cc2)n1 [Example 99g, 3-(2,2-difluoroethyl)-1-[4-[4-[1-(3-hydroxypropylsulfonyl)cyclobutyl]-6-[(3S)-3-methylmorpholin-4-yl]pyrimidin-2-yl]phenyl]thiourea]
– | 78.2 | CCCNC(=S)Nc1ccc(-c2nc(N3CCOC[C@@H]3C)cc(C3(S(=O)(=O)CCCO)CCC3)n2)cc1 [Example 99h, 3-[4-[4-[1-(3-hydroxypropylsulfonyl)cyclobutyl]-6-[(3S)-3-methylmorpholin-4-yl]pyrimidin-2-yl]phenyl]-1-propylthiourea]
– | 59.4 | C[C@H]1COCCN1c1cc(C2(S(=O)(=O)CCCO)CCC2)nc(-c2ccc(NC(=S)NCCCO)cc2)n1 [Example 99i, 3-(3-hydroxypropyl)-1-[4-[4-[1-(3-hydroxypropylsulfonyl)cyclobutyl]-6-[(3S)-3-methylmorpholin-4-yl]pyrimidin-2-yl]phenyl]thiourea]
– | 12.4 | C[C@H]1COCCN1c1cc(C2(S(=O)(=O)CCCO)CC2)nc(-c2ccc(NC(=S)NCC(F)F)cc2)n1 [Example 99j, 3-(2,2-difluoroethyl)-1-[4-[4-[1-(3-hydroxypropylsulfonyl)cyclopropyl]-6-[(3S)-3-methylmorpholin-4-yl]pyrimidin-2-yl]phenyl]thiourea]
